Consider three compounds from paper PMC7248712 (2020).

In assay [1] the test system is poly (dAdT)2 (DNA, polymer) AT. Kind of assay: fluorimetric titration, Scatchard (McGhee-von Hippel) fit. As to conditions: Na+ (sodium cacodylate, I = 0.05 M), pH 7.0, room temperature, 1 µM compound, n fixed 0.2 per polynucleotide base.
The next assay concerns poly C (RNA, polymer) C. The assay is described as follows: fluorimetric titration. The following applies: Na+ (sodium cacodylate, I = 0.05 M), pH 7.0, 1 µM compound.
The subject of assay [2] is poly A (RNA, polymer) A. The assay is described as follows: fluorimetric titration, Scatchard (McGhee-von Hippel) fit. The following applies: Na+ (sodium cacodylate, I = 0.05 M), pH 7.0, 1 µM compound, n fixed 0.5 per polynucleotide base.
Assay [3] relates to poly U (RNA, polymer) U. The assay is described as above. The following applies: Na+ (sodium cacodylate, I = 0.05 M), pH 7.0, 1 µM compound, n fixed 0.5 per polynucleotide base.
Assay [4] deals with poly A (RNA, polymer) A. Kind of assay: fluorimetric titration. As to conditions: Na+ (sodium cacodylate, I = 0.05 M); pH 7.0, 1 µM compound; up to 100-fold excess of polynucleotide bases.
For assay [5], the system named is poly A-poly U (RNA, polymer) A/U. The assay is described as follows: fluorimetric titration. The following applies: Na+ (sodium cacodylate, I = 0.05 M); pH 7.0, 1 µM compound; up to 100-fold excess of polynucleotide bases.
Assay [6] concerns poly U (RNA, polymer) U. Kind of assay: fluorimetric titration. The following applies: Na+ (sodium cacodylate, I = 0.05 M); pH 7.0, 1 µM compound; up to 100-fold excess of polynucleotide bases.
Assay [7] has as its system poly (dAdT)2 (DNA, polymer) AT. The assay is described as follows: fluorimetric titration. The following applies: Na+ (sodium cacodylate, I = 0.05 M); pH 7.0, 1 µM compound; up to 100-fold excess of polynucleotide bases.
In another assay the test system is poly G (RNA, polymer) G. The assay is described as follows: fluorimetric titration. As to conditions: Na+ (sodium cacodylate, I = 0.05 M); pH 7.0, 1 µM compound; up to 100-fold excess of polynucleotide bases.
For assay [8], the system named is poly A-poly U (RNA, polymer) A/U. The assay is described as follows: fluorimetric titration, Scatchard (McGhee-von Hippel) fit. The following applies: Na+ (sodium cacodylate, I = 0.05 M), pH 7.0, room temperature, 1 µM compound, n fixed 0.2 per polynucleotide base.

Take `COC(=O)[C@H](CCCCNC(=O)CCCc1ccc2ccc3cccc4ccc1c2c34)n1cc(Cn2cc3c4c(ncnc42)Nc2ncccc2-3)nn1`: the “log Ks” value in assay [1] is reported as 5.7; in the assay with poly A (RNA, polymer) A [2], 5.2; in the assay on poly U (RNA, polymer) U [3], 4.7. Also, the binding entry in the assay with poly C (RNA, polymer) C (emission change too small to fit, authors state binding not supported) was “no”.

On to `NCCCC[C@@H](C(=O)O)n1cc(Cn2cc3c4c(ncnc42)Nc2ncccc2-3)nn1`, for which the binding entry with poly A (RNA, polymer) A [4] was “no”; in assay [5] it was “no”; with poly U (RNA, polymer) U [6], “no”; in the assay with poly C (RNA, polymer) C (up to 100-fold excess of polynucleotide bases), “no”; in assay [7] it was “no”; in the assay on poly G (RNA, polymer) G, “no”.

Turning to `COC(=O)[C@H](CCCCNC(=O)c1ccc2ccc3cccc4ccc1c2c34)n1cc(Cn2cc3c4c(ncnc42)Nc2ncccc2-3)nn1`, the “log Ks” value in [1] came to 5.0; in assay [8] it was 5.5.
